Data taken from ChEMBL document CHEMBL1155084 (J Med Chem, 2008).

Experiments:
Blood [1] = test: Inhibition of IL1-beta release in human whole blood; type: functional, tissue-based
[2] = molecular target: Mitogen-activated protein kinase 14 (Homo sapiens, UniProt Q16539); test: Inhibition of p38alpha
Blood [3] = test: Inhibition of TNFalpha release in human whole blood; type: functional, tissue-based
CYP2C9 = CYP2C9 (Homo sapiens, UniProt P11712); test: Inhibition of CYP2C9 at 10 uM; type: ADME
CYP1A2 = molecular target: T1, CYP1A2 (Homo sapiens, UniProt P05177); test: Inhibition of CYP1A2 at 10 uM; type: ADME
T1 sequence (P05177 whole entry): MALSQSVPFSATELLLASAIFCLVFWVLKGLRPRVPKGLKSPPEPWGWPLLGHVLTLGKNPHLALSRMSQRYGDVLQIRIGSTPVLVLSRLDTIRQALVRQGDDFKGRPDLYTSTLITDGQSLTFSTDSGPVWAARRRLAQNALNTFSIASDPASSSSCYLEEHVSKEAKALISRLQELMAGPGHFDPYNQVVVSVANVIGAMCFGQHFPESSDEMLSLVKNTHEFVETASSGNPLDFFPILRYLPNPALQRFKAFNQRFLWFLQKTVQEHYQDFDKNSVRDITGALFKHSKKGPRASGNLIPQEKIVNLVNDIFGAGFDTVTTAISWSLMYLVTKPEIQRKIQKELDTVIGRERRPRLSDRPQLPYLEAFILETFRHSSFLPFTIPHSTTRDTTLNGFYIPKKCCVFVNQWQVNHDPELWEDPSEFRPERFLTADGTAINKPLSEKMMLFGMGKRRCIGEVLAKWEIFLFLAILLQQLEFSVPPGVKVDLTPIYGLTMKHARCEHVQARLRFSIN

CYP3A4 = CYP3A4 (Homo sapiens, UniProt P08684); test: Inhibition of CYP3A4 at 10 uM; type: ADME
CYP2D6 = CYP2D6 (Homo sapiens, UniProt P10635); test: Inhibition of CYP2D6 at 10 uM; type: ADME
CYP2C19 = CYP2C19 (Homo sapiens, UniProt P33261); test: Inhibition of CYP2C19 at 10 uM; type: ADME
Chain of CYP2C19 (P33261 whole entry): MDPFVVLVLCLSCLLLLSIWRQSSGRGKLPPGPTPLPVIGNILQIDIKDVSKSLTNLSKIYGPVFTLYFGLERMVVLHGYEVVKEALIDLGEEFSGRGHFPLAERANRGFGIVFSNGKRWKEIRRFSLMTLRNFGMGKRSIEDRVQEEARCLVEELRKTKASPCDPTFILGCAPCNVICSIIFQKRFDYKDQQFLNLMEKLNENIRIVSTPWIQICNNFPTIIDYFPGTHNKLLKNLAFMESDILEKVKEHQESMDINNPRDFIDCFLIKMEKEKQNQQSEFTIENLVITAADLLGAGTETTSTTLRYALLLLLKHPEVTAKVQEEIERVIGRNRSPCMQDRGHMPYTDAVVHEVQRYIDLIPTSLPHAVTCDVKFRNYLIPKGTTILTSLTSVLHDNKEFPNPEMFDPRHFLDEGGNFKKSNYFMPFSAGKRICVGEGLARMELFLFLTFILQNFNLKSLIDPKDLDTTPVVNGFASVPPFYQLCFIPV

Chain of Mitogen-activated protein kinase 14 (Q16539 whole entry): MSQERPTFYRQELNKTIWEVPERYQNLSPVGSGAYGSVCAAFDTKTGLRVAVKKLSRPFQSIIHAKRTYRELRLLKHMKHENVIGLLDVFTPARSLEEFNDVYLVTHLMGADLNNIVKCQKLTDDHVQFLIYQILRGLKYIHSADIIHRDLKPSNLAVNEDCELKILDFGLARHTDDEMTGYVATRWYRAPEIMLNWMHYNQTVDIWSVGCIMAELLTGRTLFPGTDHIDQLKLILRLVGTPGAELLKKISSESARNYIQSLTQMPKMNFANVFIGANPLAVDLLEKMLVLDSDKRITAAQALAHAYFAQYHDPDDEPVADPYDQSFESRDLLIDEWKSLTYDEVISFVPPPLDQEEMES
Chain of CYP2C9 (P11712 whole entry): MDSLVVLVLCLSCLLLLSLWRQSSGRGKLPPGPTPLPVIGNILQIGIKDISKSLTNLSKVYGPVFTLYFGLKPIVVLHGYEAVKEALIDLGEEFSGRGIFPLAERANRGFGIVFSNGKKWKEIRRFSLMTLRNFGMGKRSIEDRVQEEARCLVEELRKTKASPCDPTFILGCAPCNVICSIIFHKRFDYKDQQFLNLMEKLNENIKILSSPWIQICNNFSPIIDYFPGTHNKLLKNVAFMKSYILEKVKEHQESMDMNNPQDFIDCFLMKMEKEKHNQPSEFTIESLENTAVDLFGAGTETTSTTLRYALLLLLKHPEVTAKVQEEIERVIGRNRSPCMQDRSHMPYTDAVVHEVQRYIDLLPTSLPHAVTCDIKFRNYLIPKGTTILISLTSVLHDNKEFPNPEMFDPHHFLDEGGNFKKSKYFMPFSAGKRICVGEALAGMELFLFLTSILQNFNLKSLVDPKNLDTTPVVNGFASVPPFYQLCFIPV
Chain of CYP2D6 (P10635 whole entry): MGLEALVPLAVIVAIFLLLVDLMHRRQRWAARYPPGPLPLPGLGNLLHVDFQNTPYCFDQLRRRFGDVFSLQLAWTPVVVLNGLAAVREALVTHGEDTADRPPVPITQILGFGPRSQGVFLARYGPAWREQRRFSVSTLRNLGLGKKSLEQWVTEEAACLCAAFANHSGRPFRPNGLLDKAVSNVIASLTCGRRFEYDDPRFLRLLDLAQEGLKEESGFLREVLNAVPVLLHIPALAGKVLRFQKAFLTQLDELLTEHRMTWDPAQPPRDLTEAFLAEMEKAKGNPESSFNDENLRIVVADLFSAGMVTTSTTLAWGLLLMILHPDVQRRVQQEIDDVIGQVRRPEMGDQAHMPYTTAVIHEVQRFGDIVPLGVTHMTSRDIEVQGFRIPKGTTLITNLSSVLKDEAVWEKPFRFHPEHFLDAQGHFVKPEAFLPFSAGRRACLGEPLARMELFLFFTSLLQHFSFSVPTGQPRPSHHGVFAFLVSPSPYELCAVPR
Chain of CYP3A4 (P08684 whole entry): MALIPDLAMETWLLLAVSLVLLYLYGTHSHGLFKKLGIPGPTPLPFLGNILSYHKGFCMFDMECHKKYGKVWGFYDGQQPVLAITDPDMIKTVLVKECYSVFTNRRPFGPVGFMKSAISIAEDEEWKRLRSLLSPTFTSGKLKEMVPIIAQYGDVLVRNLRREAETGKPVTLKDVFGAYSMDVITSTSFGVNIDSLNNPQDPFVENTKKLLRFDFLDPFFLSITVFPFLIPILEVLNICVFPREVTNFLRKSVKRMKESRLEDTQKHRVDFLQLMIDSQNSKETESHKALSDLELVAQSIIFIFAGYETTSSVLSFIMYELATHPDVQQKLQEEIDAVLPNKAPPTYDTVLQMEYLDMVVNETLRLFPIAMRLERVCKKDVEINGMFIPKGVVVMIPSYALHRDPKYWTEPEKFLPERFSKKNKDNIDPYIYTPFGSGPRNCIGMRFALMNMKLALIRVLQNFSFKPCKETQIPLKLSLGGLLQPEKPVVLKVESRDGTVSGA

Row | Structure (SMILES) | IC50 [2] | IC50 (Blood [3]) | further results
1 | CSc1nc(-c2ccnc(NC3CCCc4ccccc43)c2)c(-c2ccc(F)cc2)[nH]1 (centres undefined) | 47 nM | 2810 nM | IC50 (Blood [1]): 16200 nM
2 | CSc1nc(-c2cccc(C(F)(F)F)c2)c(-c2ccnc(N[C@H]3CC[C@H](O)CC3)c2)[nH]1 | 11 nM | 1680 nM | 
3 | CSc1nc(-c2ccc(F)cc2)c(-c2ccnc(OCc3cccs3)c2)[nH]1 | 424 nM | 38400 nM | 
4 | CSc1nc(-c2ccc(F)cc2)c(-c2ccnc(OC(C)c3ccccc3)c2)[nH]1 (centres undefined) | 639 nM | 44300 nM | 
5 | CSc1nc(-c2ccc(F)cc2)c(-c2ccnc(NCc3ccccc3)c2)[nH]1 | 139 nM |  | 
6 | CSc1nc(-c2ccc(F)cc2)c(-c2ccnc(NCc3ccc(F)cc3)c2)[nH]1 | 173 nM | 22200 nM | 
7 | C[S+]([O-])c1ccc(-c2nc(-c3ccncc3)c(-c3ccc(F)cc3)[nH]2)cc1 (centres undefined) [SB-203580] |  |  | inhibition at 10 µM (CYP2C9): 87%; inhibition at 10 µM (CYP1A2): 38%
8 | COCCn1c(SC)nc(-c2ccc(F)cc2)c1-c1ccnc(N[C@H](C)C2CCCCC2)c1 | 359 nM | 28000 nM | 
9 | CSc1nc(-c2ccc(F)cc2)c(-c2ccnc(F)c2)[nH]1 | 559 nM | 29900 nM | 
10 | CSc1nc(-c2cccc(C(F)(F)F)c2)c(-c2ccnc(NC(C)C(C)C)c2)[nH]1 (centres undefined) | 34 nM | 2930 nM | IC50 (Blood [1]): 1360 nM
11 | CSc1nc(-c2ccc(F)cc2)c(-c2ccnc(N[C@H]3CC[C@@H](C)CC3)c2)[nH]1 | 31 nM | 3680 nM | 
12 | CSc1nc(-c2ccc(F)cc2)c(-c2ccnc(N[C@H]3CC[C@H](C)CC3)c2)[nH]1 | 15 nM | 15800 nM | 
13 | CSc1nc(-c2cccc(C(F)(F)F)c2)c(-c2ccnc(NCc3ccco3)c2)[nH]1 | 191 nM | 14800 nM | 
14 | CSc1nc(-c2ccc(F)cc2)c(-c2ccnc(NCc3cc4ccccc4s3)c2)[nH]1 | 314 nM | 55500 nM | 
15 | CSc1nc(-c2ccc(F)cc2)c(-c2ccnc(NC(Cc3ccccc3)Cc3ccccc3)c2)[nH]1 | 2150 nM | 43600 nM | 
16 | COCCn1c(SC)nc(-c2ccc(F)cc2)c1-c1ccnc(NC2CCOCC2)c1 | 38 nM | 5880 nM | 
17 | CSc1nc(-c2ccc(F)cc2)c(-c2ccnc(NC(C)C(C)(C)C)c2)[nH]1 (centres undefined) | 230 nM | 435 nM | 
18 | CSc1nc(-c2cccc(C(F)(F)F)c2)c(-c2ccnc(NC3CCCc4ccccc43)c2)[nH]1 (centres undefined) | 248 nM | 21200 nM | IC50 (Blood [1]): 10300 nM
19 | CSc1nc(-c2ccc(F)cc2)c(-c2ccnc(NCc3ccc(C(C)(C)C)cc3)c2)[nH]1 | 1340 nM | 52600 nM | 
20 | CSc1nc(-c2ccnc(NCCCO)c2)c(-c2ccc(F)cc2)[nH]1 | 15 nM | 680 nM | 
21 | CSc1nc(-c2cccc(C(F)(F)F)c2)c(-c2ccnc(F)c2)[nH]1 | 1090 nM | 44200 nM | 
22 | CSc1nc(-c2ccc(F)cc2)c(-c2ccnc(NCCc3cc(C)ccc3C)c2)[nH]1 | 82 nM | 51500 nM | IC50 (Blood [1]): 59300 nM
23 | CSc1nc(-c2ccc(F)cc2)c(-c2ccnc(N[C@H]3CC[C@H](O)CC3)c2)[nH]1 | 3 nM | 386 nM | 

Row | Structure (SMILES) | IC50 [2] | IC50 (Blood [3]) | further results
24 | Fc1cc(-c2[nH]c(SCc3ccccc3)nc2-c2cccc(C(F)(F)F)c2)ccn1 | 1950 nM | 83600 nM | 
25 | CSc1nc(-c2cccc(C(F)(F)F)c2)c(-c2ccnc(NCCCO)c2)[nH]1 | 61 nM | 5190 nM | 
26 | CSc1nc(-c2ccc(F)cc2)c(-c2ccnc(NCCC(C)C)c2)[nH]1 | 90 nM | 2430 nM | 
27 | CCC(Nc1cc(-c2nc(SC)[nH]c2-c2ccc(F)cc2)ccn1)c1ccccc1 (centres undefined) | 68 nM |  | inhibition at 10 µM (CYP3A4): 81%; inhibition at 10 µM (CYP2C9): 80%; inhibition at 10 µM (CYP2D6): 73%; inhibition at 10 µM (CYP2C19): 88%; inhibition at 10 µM (CYP1A2): 55%
28 | CSc1nc(-c2ccc(F)cc2)c(-c2ccnc(NCc3ccc(C)o3)c2)[nH]1 | 113 nM | 7430 nM | 
29 | CSc1nc(-c2ccc(F)cc2)c(-c2ccnc(NC3CCC(C)CC3)c2)[nH]1 (mixture of isomers) | 20 nM | 5400 nM | 
30 | CSc1nc(-c2ccc(F)cc2)c(-c2ccnc(N[C@@H](C)C3CCCCC3)c2)[nH]1 | 153 nM | 27600 nM | 
31 | CSc1nc(-c2cccc(C(F)(F)F)c2)c(-c2ccnc(NC(C)CCc3ccccc3)c2)[nH]1 (centres undefined) | 49 nM | 4640 nM | IC50 (Blood [1]): 1290 nM
32 | Fc1ccc(-c2nc(SCc3ccccc3)[nH]c2-c2ccnc(F)c2)cc1 | 258 nM |  | 
33 | CSc1nc(-c2cccc(C(F)(F)F)c2)c(-c2ccnc(NCC(C)c3ccccc3)c2)[nH]1 (centres undefined) | 93 nM | 23000 nM | 
34 | COCCn1c(SC)nc(-c2ccc(F)cc2)c1-c1ccnc(NCC(C)O)c1 (centres undefined) | 146 nM | 6380 nM | 
35 | CSc1nc(-c2ccnc(NC3CCCCC3)c2)c(-c2ccc(F)cc2)[nH]1 | 20 nM | 362 nM | 
36 | CSc1nc(-c2ccc(F)cc2)c(-c2ccncc2)n1C |  | 5100 nM | IC50 (Blood [1]): 80 nM
37 | CSc1nc(-c2ccc(F)cc2)c(-c2ccnc(OC(C)CCCC(C)C)c2)[nH]1 (centres undefined) | 641 nM | 42700 nM | 
38 | CSc1nc(-c2ccc(F)cc2)c(-c2ccnc(Cl)c2)[nH]1 | 1040 nM |  | 
39 | COCCn1c(SC)nc(-c2ccc(F)cc2)c1-c1ccnc(NC(C)CO)c1 (centres undefined) | 292 nM | 17400 nM | 
40 | CCC(CO)Nc1cc(-c2[nH]c(SC)nc2-c2ccc(F)cc2)ccn1 (centres undefined) | 10 nM | 239 nM | 
41 | CSc1nc(-c2ccc(F)cc2)c(-c2ccnc(NCCC(C)(C)C)c2)[nH]1 | 126 nM | 4540 nM | 
42 | CCSc1nc(-c2ccc(F)cc2)c(-c2ccnc(Cl)c2)[nH]1 | 372 nM | 36000 nM | 
43 | CSc1nc(-c2ccnc(OCC3CCCO3)c2)c(-c2ccc(F)cc2)[nH]1 (centres undefined) | 542 nM | 11200 nM | 
44 | CSc1nc(-c2ccc(F)cc2)c(-c2ccnc3ccccc23)[nH]1 | 411 nM | 16800 nM | IC50 (Blood [1]): 35000 nM
45 | CSc1nc(-c2ccc(F)cc2)c(-c2ccnc(NCc3ccncc3)c2)[nH]1 | 119 nM | 6220 nM | 
46 | CSc1nc(-c2ccc(F)cc2)c(-c2ccnc(NCC(C)c3ccccc3)c2)[nH]1 (centres undefined) | 17 nM | 3930 nM | IC50 (Blood [1]): 10100 nM

Row | Structure (SMILES) | IC50 [2] | IC50 (Blood [3]) | further results
47 | CSc1nc(-c2ccc(F)cc2)c(-c2ccnc(NCc3cccc4ccccc34)c2)[nH]1 | 171 nM | 28000 nM | 
48 | CCSc1cc(-c2nc(SC)[nH]c2-c2ccc(F)cc2)ccn1 | 87 nM | 24100 nM | IC50 (Blood [1]): 61300 nM
49 | CSc1nc(-c2ccc(F)cc2)c(-c2ccnc(N[C@H](C)C3CCCCC3)c2)[nH]1 | 9 nM | 3300 nM | 
50 | Fc1ccc(-c2nc(SCc3ccccc3)[nH]c2-c2ccnc(Cl)c2)cc1 | 2900 nM | 50900 nM | 
51 | COCCn1c(SC)nc(-c2ccc(F)cc2)c1-c1ccnc(NC[C@H]2CCCC[C@@H]2O)c1 | 235 nM | 11500 nM | 
52 | CSc1nc(-c2cccc(C(F)(F)F)c2)c(-c2ccnc(NC(C)c3ccccc3)c2)[nH]1 (centres undefined) | 199 nM | 12200 nM | 
53 | COCCn1c(SC)nc(-c2ccc(F)cc2)c1-c1ccnc(NC2CCCC[C@H]2O)c1 (some centres undefined) | 211 nM |  | 
54 | CSc1nc(-c2ccc(F)cc2)c(-c2ccnc(NC(C)CO)c2)[nH]1 (centres undefined) | 6 nM | 439 nM | 
55 | CSc1nc(-c2ccc(F)cc2)c(-c2ccnc(NC(CO)C(C)C)c2)[nH]1 (centres undefined) | 34 nM | 1060 nM | 
56 | CCSc1nc(-c2ccc(F)cc2)c(-c2ccnc(F)c2)[nH]1 | 213 nM |  | 
57 | CSc1nc(-c2ccc(F)cc2)c(-c2ccnc(NC(Cc3ccccc3)c3ccccc3)c2)[nH]1 (centres undefined) | 348 nM | 43500 nM | 
58 | CSc1nc(-c2ccnc(NC3CCOCC3)c2)c(-c2ccc(F)cc2)[nH]1 | 5 nM |  | 
59 | CSc1nc(-c2ccc(F)cc2)c(-c2ccnc(NC3CCCCC3C)c2)[nH]1 (mixture of isomers) | 13 nM | 458 nM | IC50 (Blood [1]): 136 nM
60 | CSc1nc(-c2ccc(F)cc2)c(-c2ccnc(NC(C)CC(C)C)c2)[nH]1 (centres undefined) | 26 nM | 700 nM | 
61 | CCSc1nc(-c2cccc(C(F)(F)F)c2)c(-c2ccnc(F)c2)[nH]1 | 657 nM | 71500 nM | 
62 | CSc1nc(-c2ccc(F)cc2)c(-c2ccnc(NCCO)c2)[nH]1 | 45 nM | 2040 nM | 
63 | CSc1nc(-c2cccc(C(F)(F)F)c2)c(-c2ccnc(NCc3ccccc3)c2)[nH]1 | 282 nM | 38100 nM | 
64 | CCC(C)CNc1cc(-c2[nH]c(SC)nc2-c2ccc(F)cc2)ccn1 (centres undefined) | 23 nM | 622 nM | IC50 (Blood [1]): 2760 nM
65 | CSc1nc(-c2ccc(F)cc2)c(-c2ccnc(OCc3ccccc3)c2)[nH]1 | 436 nM | 44700 nM | 
66 | CSc1nc(-c2cccc(C(F)(F)F)c2)c(-c2ccnc(N[C@H](C)C3CCCCC3)c2)[nH]1 | 36 nM | 9890 nM | 
67 | CSc1nc(-c2cccc(C(F)(F)F)c2)c(-c2ccnc(NCc3cccs3)c2)[nH]1 | 239 nM | 26800 nM | 
68 | COCCn1c(SC)nc(-c2ccc(F)cc2)c1-c1ccnc(Nc2ccccc2)c1 | 51 nM |  | 
69 | COCCn1c(SC)nc(-c2ccc(F)cc2)c1-c1ccnc(N[C@H](C)CO)c1 | 485 nM |  | 
